Here are results for seven compounds from ChEMBL document CHEMBL1201862, “PubChem BioAssay data set” (2004).

Test systems include A549; DU-145; EKVX; HCT-15; HL-60; HOP-62; HT-29; K562; KM12; MCF7; Malme-3M; NCI-H522; NCI/ADR-RES; OVCAR-8; SF-268; SF-295; SK-MEL-5; SNB-19; T47D; UO-31.
Common to all, as to test: NCI-60 cell line screen, 48 h

Structures are written as SMILES.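 Results reflect a 48-hour exposure of cells in 96-well plates to compound at five concentrations. GI50 = concentration required for 50% inhibition of growth.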 Activity calls are given as the source filed them. Rule as the data show it: active = GI50 up to about 1.1 µM and inactive = higher.

`c1ccc(CSCCc2ccncc2)cc1`: the GI50 with A549 is > 100 µM (inactive); with DU-145 it was > 100 µM (inactive); with EKVX it was 67.9 µM (inactive); in the assay on HCT-15, above 100 µM; with HL-60 it was 50.8 µM (inactive); with HOP-62, > 100 µM (inactive). In addition, the GI50 was > 100 µM (inactive) with HT-29; > 100 µM (inactive) with K562; > 100 µM (inactive) in the assay on KM12; > 100 µM (inactive) with MCF7; > 100 µM (inactive) in the assay on Malme-3M; 69 µM (inactive) in the assay with NCI-H522. Also, the GI50 in the assay on NCI/ADR-RES, with OVCAR-8, with SF-268, in the assay with SF-295, in the assay with SK-MEL-5 and in the assay on SNB-19 was > 100 µM (inactive) each time. In addition, the results for the GI50 in the assay on T47D and in the assay on UO-31 were 90.6 µM (inactive) and > 100 µM (inactive), respectively.

In the case of `Cc1ccc2cccc(OC(=O)c3cc4c(cc3Cl)Sc3nccn3S4(=O)=O)c2n1`, the GI50 in the assay on A549 is 11.2 µM (inactive); in the assay on DU-145, 5.83 µM (inactive); with EKVX, 16.7 µM (inactive); with HCT-15, 5.26 µM; with HL-60, < 0.01 µM (active); with HOP-62, 0.661 µM (active). Also, the GI50 in the assay on HT-29 was 10 µM (inactive); in the assay with K562 it was 4.06 µM (inactive); in the assay on KM12, 5.75 µM (inactive); with MCF7 it was 5.71 µM (inactive); in the assay on Malme-3M, 17.5 µM (inactive); with NCI-H522, 9.82 µM (inactive). Also, the GI50 in the assay with NCI/ADR-RES was 14 µM (inactive); in the assay with OVCAR-8, 4.71 µM (inactive); in the assay with SF-268 it was 6.98 µM (inactive); with SF-295, 12.9 µM (inactive); in the assay with SK-MEL-5, 12.3 µM (inactive); with SNB-19 it was 12.9 µM (inactive). The GI50 in the assay with T47D was 4.44 µM (inactive); in the assay on UO-31, 2.05 µM (inactive).

In the case of `C(=C(c1ccc(OC2CCCCO2)cc1)c1ccc(OC2CCCCO2)cc1)c1ccccc1` (stereo not given), the GI50 in the assay with A549 is 0.522 µM (active); in the assay on DU-145, 0.838 µM (active); in the assay with EKVX it was 0.456 µM (active); in the assay with HCT-15, 0.8 µM; with HL-60, 0.233 µM (active); with HOP-62 it was 0.925 µM (active). For the same compound, the GI50 is 0.386 µM (active) with HT-29; 0.35 µM (active) with K562; 0.156 µM (active) in the assay on KM12; 0.0995 µM (active) in the assay with MCF7; 0.863 µM (active) in the assay on Malme-3M; 1.09 µM (active) in the assay on NCI-H522. The GI50 with NCI/ADR-RES was 0.883 µM (active); in the assay with OVCAR-8, 0.598 µM (active); with SF-268 it was 1.09 µM (active); in the assay on SF-295 it was 1.18 µM (inactive); in the assay with SK-MEL-5 it was 0.444 µM (active); with SNB-19 it was 1.26 µM (inactive). The GI50 with T47D is 0.526 µM (active); with UO-31, 0.895 µM (active).

Regarding `O=C(O)C(SC1=NC(=O)C2(NN1)c1ccccc1-c1ccccc12)SC1=NC(=O)C2(NN1)c1ccccc1-c1ccccc12`, the GI50 in the assay with A549 is > 10 µM (inactive); in the assay with DU-145, > 10 µM (inactive); in the assay with EKVX, 9.64 µM (inactive); in the assay with HCT-15 it was above 10 µM; in the assay on HL-60, 5.14 µM (inactive); with HOP-62, > 10 µM (inactive). In addition, the GI50 with HT-29 is > 10 µM (inactive); with K562 it was 9.51 µM (inactive); with KM12, > 10 µM (inactive); with MCF7, 8.67 µM (inactive); in the assay with Malme-3M, > 10 µM (inactive); in the assay on NCI-H522, > 10 µM (inactive). The GI50 in the assay on NCI/ADR-RES, with OVCAR-8, in the assay on SF-268, with SF-295, in the assay with SK-MEL-5 and in the assay with SNB-19 was > 10 µM (inactive) each time. Besides, the figures for the GI50 with T47D and with UO-31 were 6.89 µM (inactive) and > 10 µM (inactive), respectively.

Consider `COc1ccc2c(c1)CCN1CCc3ccccc3CC21` (stereo not given), for which the GI50 in the assay with A549 is 49.7 µM (inactive); with DU-145, 65.2 µM (inactive); in the assay on EKVX it was > 100 µM (inactive); in the assay with HCT-15, 48.2 µM; with HL-60, 16.8 µM (inactive); in the assay with HOP-62 it was 72.8 µM (inactive). Further, the GI50 was 27.8 µM (inactive) with HT-29; 29 µM (inactive) in the assay with K562; 37.2 µM (inactive) in the assay with KM12; 60.8 µM (inactive) in the assay with MCF7; 43.1 µM (inactive) in the assay with Malme-3M; 67.3 µM (inactive) with NCI-H522. Further, the GI50 in the assay with NCI/ADR-RES was 42.9 µM (inactive); in the assay with OVCAR-8 it was 63.5 µM (inactive); in the assay with SF-268 it was 24.8 µM (inactive); in the assay with SF-295, 19.2 µM (inactive); in the assay with SK-MEL-5 it was 15.1 µM (inactive); in the assay on SNB-19 it was 32.9 µM (inactive). In addition, the GI50 was 43.7 µM (inactive) in the assay with T47D and 11 µM (inactive) in the assay with UO-31.

Turning to `COc1c2c3c4c(c(OC)c(=O)c5c(O)cc(OC)c(c6c(OC)cc(O)c(c1=O)c63)c54)C(C(C)O)C2C(C)O` (stereo not given), the GI50 in the assay with A549 was 0.735 µM (active); with DU-145 it was 2.43 µM (inactive); in the assay on EKVX, 0.944 µM (active); in the assay on HCT-15 it was 1.2 µM; in the assay with HL-60 it was 0.392 µM (active); with HOP-62, 0.689 µM (active). The GI50 in the assay with HT-29 is 1.16 µM (inactive); in the assay with K562, 0.387 µM (active); in the assay on KM12, 0.873 µM (active); in the assay on MCF7, 1.03 µM (active); with Malme-3M it was 1.17 µM (inactive); in the assay with NCI-H522 it was 0.415 µM (active). Moreover, the GI50 in the assay with NCI/ADR-RES is 0.923 µM (active); in the assay with OVCAR-8 it was 0.449 µM (active); in the assay with SF-268 it was 1.07 µM (active); in the assay on SF-295, 0.562 µM (active); in the assay with SK-MEL-5 it was 0.24 µM (active); with SNB-19 it was 0.83 µM (active). The GI50 in the assay with T47D is 1.18 µM (inactive); in the assay with UO-31, 0.39 µM (active).

Turning to `COc1cccc(/C=C\c2ccc(O)cc2)c1`, the GI50 is 16.9 µM (inactive) in the assay with A549; 13.1 µM (inactive) in the assay with DU-145; 30.2 µM (inactive) with EKVX; 23.7 µM with HCT-15; 0.151 µM (active) with HL-60; 34.6 µM (inactive) in the assay on HOP-62. The GI50 was 21.3 µM (inactive) in the assay on HT-29; 8.77 µM (inactive) in the assay with K562; 1.4 µM (inactive) in the assay with KM12; 26.1 µM (inactive) in the assay on MCF7; 20.2 µM (inactive) with Malme-3M; 7.06 µM (inactive) in the assay with NCI-H522. The GI50 in the assay on NCI/ADR-RES is 6.12 µM (inactive); in the assay with OVCAR-8, 12.3 µM (inactive); in the assay with SF-268, 28.2 µM (inactive); in the assay on SF-295, 28.6 µM (inactive); with SK-MEL-5 it was 17.6 µM (inactive); with SNB-19 it was 29.7 µM (inactive). Besides, the GI50 in the assay with T47D is 18.7 µM (inactive); with UO-31, 5.4 µM (inactive).
